The values below come from US20240158339A1, “TYRAMINE CONTAINING HYDROXYCINNAMIC ACID AMIDE DERIVATIVES AND METHODS OF USE THEREOF” (Brightseed, Inc., priority 2018, published 2024).

Entries after “also recorded” stand apart in the source; their conditions may differ.

One series deals with T1, HNF4α (Homo sapiens, UniProt P41235).
T1 construct: T6PNE cells (Kiselyuk, et al. (2012) Chem. Biol. 19(7):806-818; Kiselyuk, et al. (2010) J. Biomol; endogenous in cells; host or cells: T6PNE cells
T1 sequence (P41235 1-474): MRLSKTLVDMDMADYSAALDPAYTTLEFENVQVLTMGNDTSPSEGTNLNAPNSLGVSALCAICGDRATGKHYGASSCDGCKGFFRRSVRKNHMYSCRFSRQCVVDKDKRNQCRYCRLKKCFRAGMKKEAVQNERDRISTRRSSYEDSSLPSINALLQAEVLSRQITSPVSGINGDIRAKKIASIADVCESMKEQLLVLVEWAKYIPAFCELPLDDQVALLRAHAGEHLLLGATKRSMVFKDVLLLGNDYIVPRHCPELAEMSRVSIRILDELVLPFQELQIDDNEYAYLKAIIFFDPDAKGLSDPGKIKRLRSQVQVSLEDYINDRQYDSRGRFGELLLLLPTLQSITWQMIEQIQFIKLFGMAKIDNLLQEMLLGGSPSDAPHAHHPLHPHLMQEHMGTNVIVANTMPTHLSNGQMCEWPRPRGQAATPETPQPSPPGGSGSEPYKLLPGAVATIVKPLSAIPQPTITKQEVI
Description: Insulin promoter activity assay (HNF4α assay) in T6PNE cells. The class given is cell-based. The method, then: Insulin Promoter Activity. T6PNE cells (Kiselyuk, et al. (2012) Chem. Biol. 19(7):806-818; Kiselyuk, et al. (2010) J. Biomol. Screen 15(6):663-70) are seeded at 2000 cells per well in 384-well tissue culture plates in the presence of 1 μM tamoxifen and 0.03 mM palmitate. After a 24-hour incubation, a compound of the invention is added to the cells. Forty-eight hours after compound addition, cells are fixed in 4% paraformaldehyde and stained with DAPI. Blue (DAPI) and green (human insulin promoter driving GFP) channels are imaged.
Inhibition of HNF4α GFP Expression. Using the insulin promoter assay described herein, activity of HNF4α was assessed in the presence of BI-6015 (0, 2.5, 5 μM), a known antagonist of HNF4α (Kiselyuk, et al. (2012) Chem. Biol. 19(7):806-818), in combination with N-trans-caffeoyltyramine (0, 5, 10, 20 μM).
Given the role of HNF4α in maintaining a health metabolism in humans, test compounds were screened for activity as HNF4α agonists (either direct or indirect effects). Using a known insulin promoter-reporter assay Kiselyuk and colleagues (2010. J. Biomol. Screen 15(6):663-70) screened a library of compounds for activity to promote insulin activation. […] The OTC promoter is known to be responsive to HNF4α in transient transfection assays (Inoue, et al. (2002) J. Biol. Chem. 277:25257-65).
Plant compounds in the top 10th percentile of similarity to the 18 target structures were selected and compounds predicted to be potential agonists of HNF4α activity given their chemical structural features were screened in the HNF4α assay.

Series [1] in a line: Hepatic microsome stability assay, human. The format is in vitro ADME. How it is done:
Hepatic Microsome Assay. Hepatic microsomes stability assays were performed in accordance with known methods (Peddibhotla, et al. (2013) ACS Med. Chem. Lett. 4:846-851). Briefly, 3 μL of 25 μM compound solution in acetonitrile were incubated with 123 μL of mouse, human or rat liver microsomes (Xenotech, Kansas City, KS). After preincubation at 37° C. for 10 minutes, enzyme reactions were initiated by adding 120 !at of NADPH-generating system (2 mM NADP+, 10 mM glucose-6-phosphate, 0.4 U/ml glucose-6-phosphate dehydrogenase, and 5 mM MgCl2) in the presence of 100 mM potassium phosphate buffer (pH 7.4). […] The microsomal concentrations used were 1.0 mg/mL. Compounds were incubated in microsomes for 0, 5, 15, 30 and 60 minutes. The reactions were stopped by the addition of ice cold ACN and the reaction mixtures were centrifuged at 10,000 g for 10 minutes before the supernatant was removed for analysis. A 10 μL portion of the resulting extract was injected on a Thermo HPLC system equipped with PAL CTC plate sampler (96-well plate), Dionex Ultimate 3000 binary pump (flow rate at 0. 600 mL/min), Dionex Ultimate 3000 thermostatted column compartment (temperature at 40° C.), Thermo Endura Mass Spectrometer (ESI source), using a Thermo Scientific Accucore C18 (2.6 μM, 2.1×50 mm) column. A gradient was run starting at 95% H2O (0.1% formic acid) and 5% ACN (0. 1% formic acid) during the first 0. 5 min, then under gradient condition of 5-100% ACN (0.1% formic acid) from minute 0. 5 to 3.5, finishing at 95% H2O (0.1% formic acid) and 5% ACN (0.1% formic acid) over 0.5 min, with another 1 min at 95:5 to re-equilibrate.

The next series has as its system HepG2 cells. Briefly: Lipid clearance (steatosis assay) in HepG2 cells. The format is cell-based. The note with it: HepG2 liver cells, 20 μM. The method, then: (§1) Lipid Clearance in HepG2 and T6PNE Cells (Steatosis Assay). The steatosis assay was carried out as described (Kiselyuk, et al. (2012) Chem. Biol. 19(7):806-818) with the exception of the drug concentration, which was 20 μM for N-trans-caffeoyltyramine with 0.25 mM palmitate in HepG2 cell lines, and 10 μM of either N-trans-caffeoyltyramine, N-trans-caffeoyltyramine, or p-coumaroyltyramine, with 0.25 mM palmitate in T6PNE cell lines. Steatosis was assessed using the Oil Red O Method for Fats kits (Poly Scientific; Warrington, PA), per manufacturer's guidelines. Briefly, frozen tissue slides or fixed cells were incubated in neat propylene glycol for 2 minutes and Oil Red O solution for […] for slides or 1 hour for fixed cells, differentiated in 85% propylene glycol solution for 1 minute, washed twice with distilled water and stained in Hematoxylin of 10 seconds. Slides were mounted with glycerin jelly mounting medium.

A further series deals with T6PNE cells. Briefly: Lipid clearance (steatosis assay) in T6PNE cells. The class given is cell-based. How it is done:
T6PNE cells were pretreated for 1 day with 0.06 mM, 0.12 mM or 0.25 mM palmitate at which time 15 μM N-trans-caffeoyltyramine or control (DMSO) was added. Cells were harvested on day 3, 6 and 8 and subjected to staining with Nile Red and […]. Results are expressed as fold change in Nile Red staining: +palmitate/10% FBS medium (no palmitate).
as §1

For orientation: half-life means the time needed for the level to fall by half in the phase considered. Lower therefore signals rapid decline. Consider `O=C(/C=C/c1ccc(O)c(O)c1)NCCc1ccc(O)cc1` [N-trans-caffeoyltyramine], for which, on HNF4α (FIG. 1, dose-response, insulin promoter activity), the “potency in activating HNF4α relative to Alverine” value is listed as “roughly an order-of-magnitude more potent than Alverine”. The “HNF4α activation / bioactivity (screening result in words)” value at HNF4α (HNF4α assay, screening and SAR statements) is listed as “able to act as HNF4α modulators”. Moreover, the “apparent major biotransformation pathway” value in series [1] (human microsomes) was “oxidation of the left-hand aryl ring”. Also, the “% Remaining” value is on record as 55.3% in series [1] (human microsomes, 1 μM) and 85.4% in series [1] (human microsomes, 10 μM). Moreover, the “stability in hepatic microsomes” value in series [1] (human, rat and mouse hepatic microsomes) is reported as “stable”. This molecule also had a half-life at 1 μM in series [1] (liver microsomes, pH 7.4, human microsomes, 1 μM) of 1.29 h. The microsomal CLint at 1 μM in series [1] (liver microsomes, pH 7.4, human microsomes, 1 μM, read-out: Clearance Rate) worked out at 17.9 µL/min/mg. Moreover, the half-life at 10 μM in series [1] (liver microsomes, pH 7.4, human microsomes, 10 μM) worked out at 4.37 h. The microsomal CLint at 10 μM in series [1] (liver microsomes, pH 7.4, human microsomes, 10 μM, read-out: Clearance Rate) was determined as 5.3 µL/min/mg. In addition, in the series on HepG2 cells, the “clearing of fats, Oil Red O staining” value was “capable of clearing harmful fats from the liver”. The accumulation of fats result with HepG2 cells (0.25 mM palmitate) is “inhibited accumulation of fats”. Moreover, in the series on T6PNE cells (T6PNE cells pretreated 1 day with 0.06-0.25 mM palmitate, 15 μM compound, Nile Red, FIG. 6), the “lipid accumulation when palmitate was added prior to compound” value is listed as “reduced lipid accumulation; also recorded: can reverse fat accumulation”. Further, in the series with T6PNE cells (T6PNE cells, 0.25 mM palmitate, 10 μM compound), the fat accumulation result was “inhibition of fat accumulation”.
